We go through 2 compounds from patent publication US20180072944A1, “Stannous Fluorescent Probe” (priority 2016, published 2018).

The subject of data set [1] is Streptococcus mutans (ATCC® 700610™). Nature of the data set: Fluorescence imaging of Sn^2+ in bacteria (confocal). To be noted: for fluorescence change in Streptococcus mutans after incubation with Sn^2+: 10 μM probe 60 min at 37° C., then 50 μM Sn^2+; for fluorescence in Streptococcus mutans without Sn^2+ present: 10 μM probe, 37° C., 60 min, no Sn^2+. Format: cell-based. As to the method: Cell culture preparation is described. The KB cell line was provided by of Biochemistry and Cell Biology (China). Cells are grown in MEM (Modified Eagle's Medium) supplemented with 10% FBS (Fetal Bovine serum) and 5% CO2 at 37° C. Cell ([…]) are plated on […] glass coverslips and allowed to adhere for 24 hours. The Streptococcus mutans (ATCC® 700610™) is prepared by inoculating the single colony from the BHI (Brain-Heart Infusion) agar plate into 5 mL BHI broth and incubating at 37° C. for 48 h.
For fluorescence imaging of Sn^2+ in bacteria is described. Freshly diluted Streptococcus mutans (ATCC® 700610™) is sub cultured in the presence of the 10 μM Compound R1 or R2, separately at 37° C. on a shaker bed at 400 rpm for 60 min. Then the bacteria are collected by centrifugation at 8,000 rpm for 2 min and rinsed with Saline (pH=7.0). The process is repeated three times before imaging. After washing with Saline (2 mL×3) to remove the excess probes, the bacteria is cultured in the presence of the 50 μM SnF2 at 37° C. on a shaker bed at 400 rpm for 60 min. Then the bacteria are collected by centrifugation at 8,000 rpm for 2 min and rinsed with Saline (pH=7.0). The process was repeated three times before imaging. The light source is at =543 nm provided excitation and emission are collected in the range=560-660 nm.
Turning to FIGS. 5a and 5b, fluorescence imaging of Sn^2+ in bacteria is described. FIGS. 5a and 5b show simplified illustrations derived based upon CLSM. The illustrations are not drawn to scale but rather enlarged for illustrative purposes. It has been reported that Sn^2+ can inhibit metabolism of Streptococcus mutans. The practical applicability of Compounds R1 and R2 as a Sn^2+ probe in the fluorescence imaging of living Streptococcus mutans (ATCC® 700610™) are investigated. Firstly, the Streptococcus mutans (ATCC® 700610™) are separately stained with 10 μM Compound R1 or R2 at 37° C. for 60 min.
FIGS. 5a and 5b show simplified illustrations derived based upon CLSM images of Streptococcus mutans (ATCC® 700610™). The illustrations are not drawn to scale but rather enlarged for illustrative purposes. (a1-c1) and (a2-c2) Cells are separately incubated with 10 μM comparative Compound R1 and inventive Compound R2 for 30 min, (d1-f1) and (d2-f2) followed incubated with 50 μM SnF2 for 30 min. Emission is collected in red channel at 560-660 nm (b1, e1, b2, e2); a1, d1, a2, d2 are bright field images and c1, f1, c2, f2 are overlay images, respectively (λex=543 nm).

The nature of data set [2]: Metal ion sensing: fluorescence titration and selectivity experiments. It is filed as physicochemical. The note with it: for fluorescence at 580 nm upon addition of Sn^2+ / selectivity: metal ions that turn on fluorescence / fluorescence of probe solution without metal ion: 20 μM in ethanol-water (1:1, v/v, pH 7.04); for fluorescence at 580 nm upon addition of Sn^2+: Sn^2+ 0-20 eq; for fluorescence at 580 nm upon addition of Sn^2+ / selectivity: metal ions that turn on fluorescence / fluorescence enhancement with other transition and heavy metal ions: excitation 560 nm; for fluorescence of probe solution without metal ion: no Sn^2+; for fluorescence enhancement with other transition and heavy metal ions: K^+, Ag^+, Ca^2+, Mg^2+, Zn^2+, Pb^2+, Ni^2+, Mn^2+, Co^2+, Cd^2+, Hg^2+, 20 μM probe. As to the method: The procedure for metal ion sensing is described. Solutions of the metal ions (10.0 mM) are prepared in deionized water. […] Sn^2+ stock solution is added into the quartz optical cell gradually by micro-pipette. Spectral data is recorded at 5 min after addition. […] For fluorescence measurements, excitation is provided at 560 nm, while emission is collected from 565 to 700 nm. Metal ion response is described. Fluorescent ‘turn on’ probe is conducive for detection target. […] High-level selectivity is of paramount importance for an excellent chemosensor. […] Metal ion response of R1 and R2 are suited for detection of Sn^2+ in living Streptococcus mutans cells.

Data set [3] concerns lysosomes of KB cells. The experiment in a line: Colocalization experiment with LysoTracker Green DND in KB cells. It is filed as cell-based. The note with it: 50 μM Sn^2+, 10 μM probe, 1 μM LysoTracker Green DND, 30 min each. As to the method:
Colocalization experiments are described. 50 μM SnF2 in the culture media is added to the cells. The cells are incubated at 37° C. for 30 min, and washed with PBS three times to remove the excess SnF2. After washing with PBS (2 mL×3) to remove the excess SnF2, the cells are treated with 10 μM of Compound R1 or R2 separately for 30 min, and washed with PBS three times to remove the excess probe and bathed in PBS (2 mL) before imaging. Cell imaging is then carried out as the former. After washing with PBS (2 mL×3) to remove the excess probes, the cells were treated with 1.0 μM LysoTracker® Green DND at 37° C. for 30 min. Cell imaging is then carried out as the former.
Firstly, the KB cells are stained with 50 μM Sn^2+ at 37° C. for 30 min, and then separately incubated with 10 μM of Compound R1 and 1 μM LysoTracker® Green DND or Compound R2 and 1 μM LysoTracker® Green DND under the same conditions. […] There is no fluorescence in other intracellular sites. […] This may be a transmission path of Sn. […] Many pharmaceutical agents, including various large and small molecules, must be delivered specifically to particular cell organelles in order to efficiently exert their therapeutic action. Such delivery is still mainly an unresolved problem, but targeting detection is helpful attempt. […]

The nature of data set [4]: pH titration of fluorescence. Format: physicochemical. The note with it: 10 μM in PBS, emission 580 nm, excitation 560 nm. The procedure:
pH titration of Compounds R1 and R2 is described. Stock solutions of Compounds R1 and R2 are respectively added to sodium phosphate buffers of various pH to a final concentration of 10 μM. The fluorescence emission spectra are recorded as a function of pH using λex at 560 nm. The titration curves are plotted by fluorescence emission intensities at 580 nm versus pH.
The impact of pH values on fluorescence is described. The pirolactam ring of the rhodamine derivatives will open in a certain pH range and indicates the fluorescence of rhodamine. It is therefore necessary to check the fluorescence properties of Compounds R1 and R2 in solutions with different pH values. Furthermore, in the cell, the acidity of different organelles may vary greatly. For example, the normal pH of lysosomes is 4.5-5.5, which may induce ring opening of R1 or R2. Considering the application of Sn^2+ probe R1 and R2 intracellular or extracellular may be disturbed by the pH, the acid-base titration experiments are carried out by adjusting the pH with an aqueous solution of NaOH and HCl in Phosphate-Buffered Saline (“PBS”) (FIG. 2 a and b). […] It is predicted that R1 will be turned on by lysosomes in cell without Sn^2+ present. FIGS. 2a and 2b show the dependence of fluorescence at 580 nm of comparative Compound R1 and inventive Compound R2 (10 μM) at different pH in PBS solution. Excitation was at 560 nm.

As for `CCN(CC)c1ccc2c(c1)Oc1cc(N(CC)CC)ccc1C21c2ccccc2C(=O)N1NC(=O)OC(C)(C)C` [Compound R2], in data set [1], the “fluorescence change in Streptococcus mutans after incubation with Sn^2+” value was “significant fluorescence increasing” and the “fluorescence in Streptococcus mutans without Sn^2+ present” value is on record as “no fluorescence emission”. For the same compound, in data set [2], the “fluorescence at 580 nm upon addition of Sn^2+” value is “turned on and grown drastically”; the “selectivity: metal ions that turn on fluorescence” value was “tuning on just in the presence of Sn^2+ and Cr^3+”; the “fluorescence of probe solution without metal ion” value was “non-fluorescent”; the “fluorescence enhancement with other transition and heavy metal ions” value is “minimal enhancement”. Besides, in data set [3], the “colocalization of probe fluorescence with LysoTracker Green DND” value is given as “overlap with LysoTracker® Green DND very well”. Besides, in data set [4], the “pH range for inducing fluorescence turning on” value was 2-4.5 pH.

On to “Spiro[1H-isoindole-1,9′-[9H]xanthen]-3(2H)-one, 2-[2-[bis(2-hydroxyethyl)amino]amino]ethyl]-3′,6′-bis(diethylamino) [Compound R1]”, for which, in data set [1], the “fluorescence change in Streptococcus mutans after incubation with Sn^2+” value is recorded as “significant fluorescence increasing” and the “fluorescence in Streptococcus mutans without Sn^2+ present” value is “no fluorescence emission”. For the same compound, in data set [2], the “fluorescence at 580 nm upon addition of Sn^2+” value is “turned on and grown drastically”; the “selectivity: metal ions that turn on fluorescence” value was “tuning on just in the presence of Sn^2+ and Cr^3+”; the “fluorescence of probe solution without metal ion” value was “non-fluorescent”; the “fluorescence enhancement with other transition and heavy metal ions” value is on record as “minimal enhancement”. Moreover, in data set [3], the “colocalization of probe fluorescence with LysoTracker Green DND” value is “overlap with LysoTracker® Green DND very well”. Also, the “pH range for inducing fluorescence turning on” value in data set [4] was 2.5-6 pH.
